In BigSolDB 2.1:

O=c1cc(-c2ccccc2)c2cc(O)c(O)cc2o1
solubility (mole fraction)
Settings	in acetone	in chloroform	in ethyl acetate	in methanol	in n-hexane	in water
283.2 K	0.0022	3.75e-08	0.000553	0.000986	2.04e-08	7.94e-08
288.2 K	0.00228	4.16e-08	0.000572	0.00102	4.3e-08	1.39e-07
293.2 K	0.00237	5.93e-08	0.000616	0.0011	5.6e-08	1.92e-07
299.2 K	0.00246	7.09e-08	0.000928	0.00129	7.86e-08	2.39e-07
303.2 K	0.00266	1.04e-07	0.00101	0.00147	8.43e-08	2.51e-07
308.2 K	0.00299	1.71e-07	0.00139	0.00179	1.35e-07	3.57e-07

COc1cc2oc(=O)cc(-c3ccccc3)c2cc1O
solubility (mole fraction)
Settings	in acetone	in chloroform	in ethyl acetate	in methanol	in n-hexane	in water
283.2 K	0.00229	0.00313	0.0014	0.000504	3.88e-06	1.03e-07
288.2 K	0.00237	0.00361	0.00153	0.000516	4.03e-06	1.11e-07
293.2 K	0.00256	0.00374	0.00165	0.000542	4.09e-06	1.12e-07
299.2 K	0.0027	0.00414	0.00193	0.000646	4.48e-06	1.12e-07
303.2 K	0.00326	0.00457	0.00204	0.000722	4.76e-06	1.44e-07
308.2 K	0.0037	0.0059	0.00223	0.000835	5.36e-06	1.64e-07
